Patent US20090036444A1, “5-5-Membered fused heterocyclic compound and use thereof as HCV polymerase inhibitor” (priority 2003, published 2009)
Structures can show the parent of a compound that is named as a salt. Where two headings read alike, the source gives them in different places.

Legend:
[1] = target: T1, HCV polymerase H544 1b 3X (Hepatitis C virus genotype 1b, UniProt P26663); test: Assay of enzyme (HCV polymerase) inhibitory activity, H544 1b 3X; assay type: biochemical, HCV BK strain
T1 construct: a region encoding NS5B (J Virol 1991 March, 65(3), 1105-13, 544 amino acids after deletion of 47 amino acids on the C-terminal); 6 His (C); made in house; host or cells: Escherichia coli
T1 sequence (P26663 2420-2963): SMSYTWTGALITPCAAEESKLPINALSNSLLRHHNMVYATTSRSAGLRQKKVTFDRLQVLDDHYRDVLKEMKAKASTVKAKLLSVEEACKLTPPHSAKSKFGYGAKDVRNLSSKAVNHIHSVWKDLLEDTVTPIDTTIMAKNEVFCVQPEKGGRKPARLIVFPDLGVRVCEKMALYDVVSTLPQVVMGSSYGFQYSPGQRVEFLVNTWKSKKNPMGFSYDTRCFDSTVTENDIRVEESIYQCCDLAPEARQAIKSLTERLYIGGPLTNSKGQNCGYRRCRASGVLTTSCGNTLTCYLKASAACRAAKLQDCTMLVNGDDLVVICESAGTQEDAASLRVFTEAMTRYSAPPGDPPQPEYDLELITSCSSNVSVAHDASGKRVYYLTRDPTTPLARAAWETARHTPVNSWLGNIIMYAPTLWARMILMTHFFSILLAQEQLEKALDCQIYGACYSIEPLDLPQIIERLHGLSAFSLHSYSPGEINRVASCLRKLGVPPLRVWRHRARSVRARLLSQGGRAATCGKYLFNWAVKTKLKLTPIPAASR
Description: The evaluation of the HCV polymerase inhibitory activity of the compound of the present invention is explained in the following. This polymerase is an enzyme coded for by the non-structural protein region called NS5B on the genome RNA of HCV (EMBO J., 15:12-22, 1996).
Using, as a template, a cDNA clone corresponding to the full length genome RNA of HCV BK strain obtained from the blood of a patient with hepatitis C, a region encoding NS5B (J Virol 1991 March, 65(3), 1105-13, 544 amino acids after deletion of 47 amino acids on the C-terminal) was amplified by PCR. The objective gene was prepared by adding a 6 His tag {base pair encoding 6 continuous histidine (His)} to the 3′ end thereof and transformed to Escherichia coli. The Escherichia coli capable of producing the objective protein was cultured. The obtained cells were suspended in a buffer solution and crushed in a microfluidizer. The supernatant was obtained by centrifugation and applied to various column chromatographys {mono-S, Sephacryl S-200 (Pharmacia)}, inclusive of metal chelate chromatography, to give a standard enzyme product.
Using a synthetic primer designed based on the sequence of HCV genomic 3′ untranslated region, a DNA fragment (148 bp) containing polyU and 3′X sequence was entirely synthesized and cloned into plasmid pBluescript SK II (+) (Stratagene). The cDNA encoding full length NS5B, which was prepared in i) above, was digested with restriction enzyme KpnI to give a cDNA fragment containing the nucleotide sequence of from the restriction enzyme cleavage site to the termination codon. This cDNA fragment was inserted into the upstream of 3′ untranslated region of the DNA in pBluescript SK II(+) and ligated. The about 450 bp inserted DNA sequence was used as a template in the preparation of substrate RNA. This plasmid was cleaved immediately after the 3′X sequence, linearized and purified by phenol-chloroform treatment and ethanol precipitation to give DNA.
RNA was synthesized (37° C., 3 hr) by run-off method using this purified DNA as a template, a promoter of pBluescript SK II(+), MEGAscript RNA synthesis kit (Ambion) and T7 RNA polymerase. DNase I was added and the mixture was incubated for 1 hr. The template DNA was removed by decomposition to give a crude RNA product. This crude product was treated with phenol-chloroform and purified by ethanol precipitation to give the objective substrate RNA.
This RNA was applied to formaldehyde denaturation agarose gel electrophoresis to confirm the quality thereof and preserved at −80° C.
A test substance (compound of the present invention) and a reaction mixture (30 μl) having the following composition were reacted at 25° C. for 90 min. 10% Trichloroacetic acid at 4° C. and 1% sodium pyrophosphate solution (150 μl) were added to this reaction mixture to stop the reaction. The reaction mixture was left standing in ice for 15 min to insolubilize RNA. This RNA was trapped on a glass filter (Whatman GF/C and the like) upon filtration by suction. This filter was washed with a solution containing 1% trichloroacetic acid and 0.1% sodium pyrophosphate, washed with 90% ethanol and dried. A liquid scintillation cocktail (Packard) was added and the radioactivity of RNA synthesized by the enzyme reaction was measured on a liquid scintillation counter.
The HCV polymerase inhibitory activity (IC50) of the compound of the present invention was calculated from the values of radioactivity of the enzyme reaction with and without the test substance.
The results are shown in Table 18, wherein each symbol means that IC50 falls within the following range.
Reaction mixture: HCV polymerase (0.5 μg/ml) obtained in i), substrate RNA (5 μg/ml) obtained in ii), ATP (50 μM), GTP (50 μM), CTP (50 μM), UTP (2 μM), [5,6-^3H] UTP (46 Ci/mmol (Amersham), 1 μCi) 20 mM Tris-HCl (pH 7.5), EDTA (1 mM), MgCl2 (5 mM), NaCl (50 mM), DTT (1 mM), BSA (0.01%)

[2] = target: T2, HCV polymerase H544 1a 3X (UniProt P27958); test: Assay of enzyme (HCV polymerase) inhibitory activity, H544 1a 3X; assay type: biochemical
T2 construct: fused on or other part: 6 His tag at the C-terminus, for the BK (1b) enzyme

[3] = 25° C., 90 min, [5,6-3H]UTP incorporation, read-out: H544 1a 3X IC50
[4] = read-out: H544 1a 3X IC50, 25° C., 90 min, [5,6-3H]UTP incorporation

SMILES	IC50 [1] [nM]	IC50 [2, 3] [nM]	IC50 [2, 4] [nM]
O=C(Cn1c(-c2ccc(OCc3ccccc3)cc2)c(C2CCCCC2)c2sc(C(=O)O)cc21)Nc1ccc(N2CCOCC2)cc1 [Example 51, 5-(4-benzyloxyphenyl)-6-cyclohexyl-4-[(4-morpholinophenylcarbamoyl)methyl]-4H-thieno[3,2-b]pyrrole-2-carboxylic acid hydrochloride]	< 100	< 100	–
O=C(O)c1cc2c(s1)c(C1CCCCC1)c(-c1ccc(OCc3ccccc3)cc1)n2CC(=O)N1CCC(N2CCCCC2)CC1 [Example 54, 5-(4-benzyloxyphenyl)-4-[2-(1,4′-bipiperidinyl-1′-yl)-2-oxoethyl]-6-cyclohexyl-4H-thieno[3,2-b]pyrrole-2-carboxylic acid hydrochloride]	< 100	< 100	–
Cn1c(-c2ccc(OCc3cc(S(C)(=O)=O)ccc3N3CCOCC3)cc2)c(C2CCCCC2)c2sc(C(=O)O)cc21 [Example 23, 6-cyclohexyl-5-[4-(5-methanesulfonyl-2-morpholinobenzyloxy)phenyl]-4-methyl-4H-thieno[3,2-b]pyrrole-2-carboxylic acid hydrochloride]	< 100	< 100	–
COc1ccc(-c2c(C3CCCCC3)c3sc(C(=O)O)cc3n2CC(=O)N2CCOCC2)cc1 [Example 25, 6-cyclohexyl-5-(4-methoxyphenyl)-4-morpholinocarbonylmethyl-4H-thieno[3,2-b]pyrrole-2-carboxylic acid]	< 100	100 to 1000	–
O=C(O)c1cc2c(s1)c(C1CCCCC1)c(-c1ccc(OCc3ccccc3)cc1)n2CC(=O)N1CCN(C2CCCCC2)CC1 [Example 52, 5-(4-benzyloxyphenyl)-6-cyclohexyl-4-[2-(4-cyclohexylpiperazin-1-yl)-2-oxoethyl]-4H-thieno[3,2-b]pyrrole-2-carboxylic acid hydrochloride]	< 100	< 100	–
CN(C)C(=O)Cn1c(-c2ccccc2OCc2ccccc2)c(C2CCCCC2)c2sc(C(=O)O)cc21 [Example 36, 5-(2-benzyloxyphenyl)-6-cyclohexyl-4-dimethylcarbamoylmethyl-4H-thieno[3,2-b]pyrrole-2-carboxylic acid]	100 to 1000	100 to 1000	–
Cn1c(-c2ccc(OCc3ccc(N4CCCC4=O)cc3N3CCOCC3)cc2)c(C2CCCCC2)c2sc(C(=O)O)cc21 [Example 34, 6-cyclohexyl-4-methyl-5-{4-[2-morpholino-4-(2-oxopyrrolidin-1-yl)benzyloxy]phenyl}-4H-thieno[3,2-b]pyrrole-2-carboxylic acid hydrochloride]	< 100	< 100	–
COc1ccc(-c2c(C3CCCCC3)c3sc(C(=O)O)cc3n2CC(=O)NCc2ccccc2)cc1 [Example 32, 4-(benzylcarbamoylmethyl)-6-cyclohexyl-5-(4-methoxyphenyl)-4H-thieno[3,2-b]pyrrole-2-carboxylic acid]	< 100	< 100	–
Cn1c(-c2ccc(OCc3cc(N4CCCC4=O)ccc3N3CCOCC3)cc2)c(C2CCCCC2)c2sc(C(=O)O)cc21 [Example 15, 6-cyclohexyl-4-methyl-5-{4-[2-morpholino-5-(2-oxopyrrolidin-1-yl)benzyloxy]phenyl}-4H-thieno[3,2-b]pyrrole-2-carboxylic acid hydrochloride]	< 100	< 100	–
CN(C(=O)CN1CCOCC1)c1ccc(N2CCOCC2)c(COc2ccc(-c3c(C4CCCCC4)c4sc(C(=O)O)cc4n3C)cc2)c1 [Example 57, 6-cyclohexyl-4-methyl-5-(4-{5-[N-methyl-N-(2-morpholinoacetyl)amino]-2-morpholinobenzyloxy}phenyl)-4H-thieno[3,2-b]pyrrole-2-carboxylic acid dihydrochloride]	< 100	–	< 100
CC(=O)N(C)c1ccc(N2CCN(S(C)(=O)=O)CC2)c(COc2ccc(-c3c(C4CCCCC4)c4sc(C(=O)O)cc4n3C)cc2)c1 [Example 20, 5-{4-[5-(N-acetyl-N-methylamino)-2-(4-methanesulfonylpiperazin-1-yl)benzyloxy]phenyl}-6-cyclohexyl-4-methyl-4H-thieno[3,2-b]pyrrole-2-carboxylic acid hydrochloride]	< 100	< 100	–
CC(C(=O)N(C)c1ccc(N2CCOCC2)cc1)n1c(-c2ccc(OCc3ccccc3)cc2)c(C2CCCCC2)c2sc(C(=O)O)cc21 (stereo not shown) [Example 60, 5-(4-benzyloxyphenyl)-6-cyclohexyl-4-{1-[N-methyl-N-(4-morpholinophenyl)carbamoyl]ethyl}-4H-thieno[3,2-b]pyrrole-2-carboxylic acid hydrochloride]	100 to 1000	–	–
Cn1c(-c2ccccc2OCc2ccccc2)c(C2CCCCC2)c2sc(C(=O)O)cc21 [Example 35, 5-(2-benzyloxyphenyl)-6-cyclohexyl-4-methyl-4H-thieno[3,2-b]pyrrole-2-carboxylic acid]	100 to 1000	100 to 1000	–
CN(C)CCn1c(-c2ccc(OCc3cc(S(C)(=O)=O)ccc3N3CCOCC3)cc2)c(C2CCCCC2)c2sc(C(=O)O)cc21 [Example 56, 6-cyclohexyl-4-(2-dimethylaminoethyl)-5-[4-(5-methanesulfonyl-2-morpholinobenzyloxy)phenyl]-4H-thieno[3,2-b]pyrrole-2-carboxylic acid dihydrochloride]	< 100	–	< 100
COc1ccc(-c2c(C3CCCCC3)c3sc(C(=O)O)cc3n2CC(=O)N2CCC(N(C)C)CC2)cc1 [Example 27, 6-cyclohexyl-4-(4-dimethylaminopiperidino)carbonylmethyl-5-(4-methoxyphenyl)-4H-thieno[3,2-b]pyrrole-2-carboxylic acid]	< 100	< 100	–
Cn1c(-c2ccc(OCc3ccccc3N3CCOCC3)cc2)c(C2CCCCC2)c2sc(C(=O)O)cc21 [Example 31, 6-cyclohexyl-4-methyl-5-[4-(2-morpholinobenzyloxy)phenyl]-4H-thieno[3,2-b]pyrrole-2-carboxylic acid hydrochloride]	< 100	< 100	–
Cn1c(-c2ccc(OCc3cc(NC(=O)CN4CCOCC4)ccc3N3CCOCC3)cc2)c(C2CCCCC2)c2sc(C(=O)O)cc21 [Example 41, 6-cyclohexyl-4-methyl-5-{4-[2-morpholino-5-(2-morpholinoacetylamino)benzyloxy]phenyl}-4H-thieno[3,2-b]pyrrole-2-carboxylic acid dihydrochloride]	< 100	–	< 100
CN(CC(=O)N1CCCCC1)C(=O)Cn1c(-c2ccc(OCc3ccccc3)cc2)c(C2CCCCC2)c2sc(C(=O)O)cc21 [Example 50, 5-(4-benzyloxyphenyl)-6-cyclohexyl-4-{[N-methyl-N-(2-oxo-2-piperidinoethyl)carbamoyl]methyl}-4H-thieno[3,2-b]pyrrole-2-carboxylic acid]	< 100	< 100	–
CC(C)C(=O)N(C)c1ccc(N2CCOCC2)c(COc2ccc(-c3c(C4CCCCC4)c4sc(C(=O)O)cc4n3C)cc2)c1 [Example 30, 6-cyclohexyl-5-{4-[5-(N-isobutyryl-N-methylamino)-2-morpholinobenzyloxy]phenyl}-4-methyl-4H-thieno[3,2-b]pyrrole-2-carboxylic acid hydrochloride]	< 100	< 100	–
